One assay concerns the target T1, human renin (Homo sapiens, UniProt P00797).
T1 construct: purchased National Institute for Biological Standards, London
T1 sequence (P00797 67-406): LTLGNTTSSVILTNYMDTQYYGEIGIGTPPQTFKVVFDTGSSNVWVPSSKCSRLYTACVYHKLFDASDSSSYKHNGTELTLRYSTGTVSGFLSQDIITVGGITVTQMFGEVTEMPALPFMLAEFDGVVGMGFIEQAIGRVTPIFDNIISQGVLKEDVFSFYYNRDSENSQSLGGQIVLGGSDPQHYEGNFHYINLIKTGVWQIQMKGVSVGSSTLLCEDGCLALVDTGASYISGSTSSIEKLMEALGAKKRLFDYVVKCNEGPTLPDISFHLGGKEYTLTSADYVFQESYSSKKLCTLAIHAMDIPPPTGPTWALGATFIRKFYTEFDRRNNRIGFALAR
Briefly: human renin inhibition assay in vitro (angiotensin I produced, radioimmunoassay). The format is biochemical. As to conditions: human plasma, pH 7.4, two hours at 37° C. The method, then: (§1) Compounds of Formula I were evaluated as inhibitors of human renin in an in vitro assay, as follows: This human renin inhibition test has been previously described in detail [Papaioannou, et al., Clinical and Experimental Hypertension, A7(9), 1243-1257 (1985)]. Human renin was obtained from the National Institute for Biological Standards, London. In a total volume of 0.25 mL 100 mM Tris-acetate buffer at pH 7.4, 25×10-6 Goldblatt units of renin, 0.05 mL of plasma from human volunteers taking oral contraceptives, 6.0 mM sodium EDTA, 2.4 mM phenylmethyl sulfonyl fluoride, 1.5 mM 8-hydroxyquinoline, 0.4 mg/mL BSA, and 0.024 mg/mL neomycin sulfate were incubated for two hours at 37° C. in the presence or absence of renin inhibitors. The produced angiotensin I was determined by radioimmunoassay (New England Nuclear kit). Compounds to be assayed were solubilized in either ethyl alcohol or DMSO and diluted with 100 mM Tris-acetate buffer at pH 7.4 to the appropriate concentration. The final concentration of organic solvent in the reaction mixture was less than 1%. Control incubations at 37° C. were used to correct for effects of organic solvent on renin activity.

A further assay has as its system hog renin. As to the kind of experiment: hog renin inhibition assay in vitro (angiotensin I produced, radioimmunoassay). The format is biochemical. As to conditions: 20 micromolar synthetic tetradecapeptide substrate, pH 7.4, one hour at 37° C. The protocol:
as §1
The hog renin inhibition assay was performed in a manner similar to the human renin assay, with the following modifications. […] The amount of angiotensin I produced was determined as for the human renin inhibition assay.

Each structure is given as a SMILES string.

One may read the IC50 as the concentration needed to halve the response being measured. Low values mean greater potency in that assay, high ones weaker potency in that assay.

Consider `CC(C)C[C@H](NC(=O)C(CC(=O)N1CCOCC1)Cc1cccc2ccccc12)C(=O)N[C@@H](CC1CCCCC1)[C@@H](O)CO` (stereo partly drawn) [Example 9, 3-(N-morpholinocarbonyl)-2-(R,S)-(1-naphthylmethyl)-propionyl-L-leucinamide of (2S ,3R)-2-amino-1-cyclohexyl-3,4-dihydroxybutane], for which the IC50 on human renin came to 740 nM; with hog renin, 2800 nM.

(Values after patent US5416111A, “Cyano-containing n-phenyl-amino-terminated non-peptidyl α-succinamidoacyl aminodiols as anti-hypertensive agents” (G.D. Searle & Co., priority 1993, dated 1995).)
